The results in this text go back to patent US5296591A, “Trifluoromethylketone derivatives, processes for preparation thereof and use thereof” (Fujisawa Pharmaceutical Co., Ltd., priority 1990, dated 1994).

Structures are written as SMILES. Read-outs that look alike come from different tables or passages of the source.

The test system of test [1] is human sputum elastase-induced lung hemorrhage in hamsters. The test can be described thus: Elastase-induced pulmonary damage (lung hemorrhage) in hamsters. Type of test: in vivo, hamster. Conditions: 5 min predose; for Hemorrhage (OD541 nm): BAL hemoglobin 3 h after elastase; for ED50 elastase-induced lung hemorrhage: intratracheal. As for the experimental part: Hamsters under pentobarbital anesthesia were used. Saline or saline-containing human sputum elastase was instilled intratracheally via a small incision in the ventral neck region using 1-ml syringe with a 27-gauge needle. After 3 hours, animals were sacrificed by CO2 asphyxiation, each animal's trachea was reexposed. The lungs were then laveged using a 2.5-ml aliquot of saline and then withdrawing the saline, yielding a final volume of approximately 1.5 ml bronchoalveolar lavage (BAC) fluid from each animal.
The cells of BAL fluid were collected by centrifugation and were then diluted with distilled water to disrupt, and the hemoglobin contents determined spectrophotometrically at 541 nm.
Test drugs were dissolved in saline or methyl cellulose, and instilled intratracheally in the same manner as used to instill elastase, at 5 minutes before instillation of elastase.

Test [2] has as its system PPE-induced emphysema in golden Syrian hamsters. The test can be described thus: Experimentally (porcine pancreatic elastase) induced emphysema in hamsters. Format: in vivo, hamster. The following applies: for Cst (quasi static lung compliance) / VC (vital capacity): 3 weeks after PPE. As for the experimental part:
Male golden Syrian hamsters, weighing approximately 120 g, were obtained from Japan SLC Inc,.
Porcine pancreatic elastase (PPE) was purchased from Elastin Products Company, Inc,. Dialferin was purchased from Japan Roche Inc,.
Hamsters were anesthetized intraperitoneally with Pentobarbital. The compound of Example 19 was dissolved in saline. Both prior art compounds A and B were suspended in 0.5% methyl cellulose. The drugs were instilled intratracheally through the oral cavity, 5 minutes before 100 μg/site of PPE in 0.2 ml of saline instillation. Three weeks after PPE instillation, the hamsters were anesthetized with Pentobarbital. Respiratory mechanics were studied in supine hamsters using a whole body, constant-volume, variable pressure plethysmograph to measue volume. A water-filled esophageal catheter was used to estimate pleural pressure. Quasi-static deflation pressure-volume (P-V) curves were obtained by intraperitoneally administered Dialferin to suppress spontaneous breathing inflating the lungs to a transpulmonary pressure (PL) of 30 cm H2 O, permitting slow deflation to a PL of 0 cm H2 O and gently aspirating to a PL of -20 cm H2 O . Quasi-static lung compliance (Cst) was defined as the slope of the steep portion of the deflation P-V curve in the mid-volume range. Vital capacity was defined as the difference in lung volume between TLC25 (volume at PL=25 cm H2 O) and RV-20 (volume at PL=-20 cm H2 O).

Test [3] concerns human sputum elastase induced paw edema in C57BL mice. The test can be described thus: Human sputum elastase induced paw edema in mice. Conditions: for Thickness of footpad: 15 min before HSE 20 μg/site, 2 h after HSE. Format: in vivo, mouse. The protocol: Male C57BL mice at the age of 7-8 weeks were obtained from Japan Clear Inc,.
Human sputum elastase (HSE) was purchased from Elastin Products Company, Inc,. The test drug was administered subcutaneously, and 15 minutes later, HSE was injected into the right hind footpad at the dosage of 20 μg/site, and saline into the left hind footpad as the control. After 2 hours of HSE injection, the paw edema was measured with the dial thickness gage, and the difference of the thickness between right and left hind footpads was calculated.

In test [4] the target is T1, human sputum elastase (HSE) (Homo sapiens, UniProt P08246).
T1 construct: HSE was obtained from Elastin Products Company Inc., Mo., U.S.A; purchased Elastin Products Company Inc; host or cells: human sputum (from the enzyme's name)
T1 sequence (P08246 30-267): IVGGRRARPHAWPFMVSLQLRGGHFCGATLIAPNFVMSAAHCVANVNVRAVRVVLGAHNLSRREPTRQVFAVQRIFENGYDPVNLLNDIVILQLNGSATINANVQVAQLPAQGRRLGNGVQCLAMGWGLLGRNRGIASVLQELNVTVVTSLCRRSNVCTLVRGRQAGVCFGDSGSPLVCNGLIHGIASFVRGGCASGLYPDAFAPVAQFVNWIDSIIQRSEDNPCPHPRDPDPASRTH
The test can be described thus: Protease inhibition assay (in vitro), human sputum elastase. Type of test: biochemical. Conditions: substrate methoxysuccinyl-(Ala)2-Pro-Val-p-nitroanilide, 30 min, room temperature, pH 7.5. As for the experimental part:
(§1) A buffer used throughout the assay was 0.1M HEPES (4-(2-hydroxyethyl)-1-piperazineethanesulfonic acid) containing 0.5M NaCl, pH 7.5. Twenty-five microliters of 2 mM methoxysuccinyl-(Ala)2 -Pro-Val-p-nitroanilide (100 mM of dimethyl sulfoxide solution were diluted in the buffer) and 50 μl of sample (10 μl of sample in organic solvent was diluted 5-fold in the buffer) were mixed in wells of 96 well-microliter plate. An absorbance of the mixture in wavelength at 415 nm was measured by a microplate reader (Corona Electric Co., Ibaraki, Japan). After the measurement, 25 μl of 6 μg/ml human sputum elastase (HSE) was added and the mixture was allowed to stand for 30 minutes at room temperature. Then, the absorbance at 415 nm was measured. Percent inhibition by drug was determined by 100×(1-"r" inhibitor present/"r" inhibitor absent), where "r" is absorbance after 30 minutes incubation minus absorbance before enzyme addition. Effect of inhibitors against porcine pancreas elastase (Type IV, 5 μg/ml final) was assayed similarly using N-succinyl-(Ala)3 -p-nitroanilide. HSE was obtained from Elastin Products Company Inc., Mo., U.S.A. All other substrates and protease were purchased from Sigma Chemicals Co.

Test [5] deals with T2, porcine pancreas elastase (Type IV) (Sus scrofa, UniProt P00772).
T2 construct: purchased Sigma Chemicals Co; host or cells: porcine pancreas (from the enzyme's name)
T2 sequence (P00772 27-266): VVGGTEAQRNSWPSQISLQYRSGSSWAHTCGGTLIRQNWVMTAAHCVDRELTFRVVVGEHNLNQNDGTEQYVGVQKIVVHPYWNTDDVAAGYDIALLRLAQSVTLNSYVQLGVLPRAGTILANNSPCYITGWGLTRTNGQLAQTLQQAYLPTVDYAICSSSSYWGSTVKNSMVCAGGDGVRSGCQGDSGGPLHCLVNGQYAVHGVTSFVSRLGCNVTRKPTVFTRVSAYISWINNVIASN
The test can be described thus: Protease inhibition assay (in vitro), porcine pancreas elastase. Format: biochemical. The following applies: substrate N-succinyl-(Ala)3-p-nitroanilide, enzyme 5 μg/ml final. As for the experimental part: as §1

[6] abbreviates: 1 μg/site intratracheal 5 min before PPE 100 μg/site.
The mark [7] stands for this setting: 10 μg/site intratracheal 5 min before PPE 100 μg/site.
[8] abbreviates: 100 μg/site intratracheal 5 min before PPE 100 μg/site.

As to `CC(C)C(NC(=O)[C@@H]1CCCN1C(=O)[C@@H](NC(=O)c1ccc(C(=O)NCC(=O)O)cc1)C(C)C)C(=O)C(F)(F)F` (mixture of isomers) [Example 19, 3(RS)-[[4-(carboxymethylaminocarbonyl)phenylcarbonyl]-L-valyl-L-prolyl]amino-1,1,1-trifluoro-4-methyl-2-oxopentane], the “% inhibition of elastase-induced lung hemorrhage” value is 10.8% in test [1] (1 μg/site intratracheal), 93.1% in test [1] (10 μg/site intratracheal) and 105.2% in test [1] (100 μg/site intratracheal). Further, the “Hemorrhage (OD541 nm)” value amounted to 11.59 ± 1.40 OD541 nm in test [1] (1 μg/site intratracheal), 1.663 ± 0.690 OD541 nm in test [1] (10 μg/site intratracheal) and 0.2141 ± 0.020 OD541 nm in test [1] (100 μg/site intratracheal). Further, the “ED50 elastase-induced lung hemorrhage” value in test [1] was 2.4 μg/site. Besides, the “Cst (%) Inhibition” value in test [2] (1 μg/site intratracheal) was determined as 15%; in test [2] (10 μg/site intratracheal) it was 84%; in test [2] (100 μg/site intratracheal), 100%. The “VC (%) Inhibition” value in test [2] (1 μg/site intratracheal) turned out to be 12%; in test [2] (10 μg/site intratracheal) it was 65%; in test [2] (100 μg/site intratracheal) it was 97%. Besides, the entries for the “Cst (quasi static lung compliance)” value in test [2] (setting [6]), in test [2] (setting [7]) and in test [2] (setting [8]) were 1.39 ± 0.05 ml/cmH2 O, 0.70 ± 0.04 ml/cmH2 O and 0.53 ± 0.02 ml/cmH2 O, respectively. The “VC (vital capacity)” value in test [2] (setting [6]) amounted to 7.0 ± 0.1 mL; in test [2] (setting [7]), 5.8 ± 0.1 mL; in test [2] (setting [8]), 5.0 ± 0.1 mL. The “Potency compared with prior art compounds, considering Cst and VC values (in words)” value in test [2] (hamster, in vivo) is “superior to the prior art compounds A and B”. For the same molecule, in test [2] (intratracheal pretreatment, 1-100 μg/site), the “Effect of pretreatment on PPE-induced increases in lung mechanics (in words)” value is recorded as “prevented the development of PPE-induced increases in lung mechanics in a dose dependent manner”. The “% Inhibition of paw edema” value in test [3] (1 mg/kg subcutaneous) is listed as 6.4%; in test [3] (10 mg/kg subcutaneous) it was 20.9%; in test [3] (100 mg/kg subcutaneous) it was 42.3%. The figures for the Thickness of footpad in test [3] (1 mg/kg subcutaneous), in test [3] (10 mg/kg subcutaneous) and in test [3] (100 mg/kg subcutaneous) were 43.8 ± 5.67 × 10^-2 mm, 37.0 ± 13.41 × 10^-2 mm and 27.0 ± 4.66 × 10^-2 mm, respectively. Moreover, the values for the half-inhibitory concentration (IC50) in test [4] and in test [5] (IC50 Porcine pancreas elastase) were 680 nM and 3000 nM, respectively.
Regarding `CC(C)C(NC(=O)CN(C(=O)[C@@H](NC(=O)c1ccc(C(=O)NCCN2CCOCC2)cc1)C(C)C)C1Cc2ccccc2C1)C(=O)C(F)(F)F` (mixture of isomers) [Example 29, 3(RS)-[[4-[[2-(4-morpholino)ethyl]aminocarbonyl]phenylcarbonyl]-L-valyl-N-(2-indanyl)glycyl]amino-1,1,1-trifluoro-4-methyl-2-oxopentane], the figures for the “% inhibition of elastase-induced lung hemorrhage” value in test [1] (1 μg/site intratracheal), in test [1] (10 μg/site intratracheal) and in test [1] (100 μg/site intratracheal) were 14.9%, 43.2% and 69.4%, respectively. Also, the “Hemorrhage (OD541 nm)” value was found to be 12.05 ± 1.95 OD541 nm in test [1] (1 μg/site intratracheal), 8.155 ± 1.76 OD541 nm in test [1] (10 μg/site intratracheal) and 4.545 ± 1.49 OD541 nm in test [1] (100 μg/site intratracheal). Also, the “ED50 elastase-induced lung hemorrhage” value in test [1] worked out at 17.9 μg/site. In addition, the IC50 in test [4] was found to be 2400 nM; in test [5] (read-out: IC50 Porcine pancreas elastase), 19000 nM.
